The structures appear in SMILES notation. Several values for one entry are separate records, joined by “and”; a condition that tells them apart may be missing. Equal entries are not always repeated.

The values that follow come from US10501479B2, “Benzenesulfonyl-asymmetric ureas and medical uses thereof” (HELSINN HEALTHCARE SA, priority 2016, dated 2019).

The nature of series [1]: Metabolic stability in rat liver microsomes. It is filed as in vitro ADME. The gist of the method: (§1)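 Loss of parent over time in microsomal incubations at 37 °C with NADPH regeneration, sampled up to 90 min and read by LC-MS/MS.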
Background: Liver microsomes are a subcellular fraction often used to study metabolism.

Series [2] has as its target T1, recombinant human ghrelin receptor (HEK293/GRLN) (Homo sapiens, UniProt Q92847).
T1 construct: expressed in transfected cells
Briefly: Ghrelin inverse agonist potency (EC50) with IP-1 (IP-One HTRF) assay. Format: cell-based. The settings on record: inverse agonist potency, IP-1 assay; read-out: EC50 (Activity). The gist of the method:
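IP-1 accumulation was measured by HTRF (IP1-d2/Tb-cryptate, 620/665 nm read after 1 hour at room temperature) following 1 hour of compound treatment at 37° C. Cells were HEK293 stably expressing human ghrelin receptor, plated a day earlier on Matrigel. Inverse agonist potency was reported as EC50.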
Background: In TR-FRET formats the signal depends on donor and acceptor labels being close together.

Series [3] can be described thus: Metabolic stability in human liver microsomes. Format: in vitro ADME. In short, it runs like this:
as §1

The target of series [4] is T2, GHSR-1a (HEK293/GHSR1a cell line) (Homo sapiens, UniProt Q92847).
T2 construct: expressed in transfected cells; host or cells: HEK293/GHSR1a cell line
T2 sequence (Q92847 whole entry): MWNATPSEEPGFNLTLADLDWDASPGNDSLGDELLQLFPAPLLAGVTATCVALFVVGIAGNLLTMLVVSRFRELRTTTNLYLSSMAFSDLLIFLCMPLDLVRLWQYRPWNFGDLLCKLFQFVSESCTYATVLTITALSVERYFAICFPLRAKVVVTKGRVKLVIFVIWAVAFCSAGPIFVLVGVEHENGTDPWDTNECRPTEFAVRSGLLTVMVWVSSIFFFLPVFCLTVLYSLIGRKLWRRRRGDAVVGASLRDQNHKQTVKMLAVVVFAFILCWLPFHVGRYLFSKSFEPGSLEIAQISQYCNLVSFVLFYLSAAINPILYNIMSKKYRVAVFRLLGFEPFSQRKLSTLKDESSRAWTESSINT
In words: Ghrelin antagonist potency (IC50) with calcium FLIPR assay, ghrelin 10 nM. It is filed as cell-based. The settings on record: ghrelin antagonist potency, read-out: IC50 (Activity). The gist of the method:
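In this assay, compound alone assesses agonism, while compound co-added with ghrelin at 10 nM assesses antagonism. In both modes the calcium-dye signal is tracked for 2 min from t=20 sec.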

The nature of series [5]: Plasma protein binding (PPB), human. Format: in vitro ADME. The settings on record: read-out: PPB (H).
Series [6] can be described thus: Metabolic stability in dog liver microsomes. It is filed as in vitro ADME. The gist of the method:
as §1

Series [7] can be described thus: Plasma protein binding (PPB), mouse. It is filed as in vitro ADME.
Series [8] is described as follows: Plasma protein binding (PPB), rat. Particulars: read-out: PPB (R) (converted). Format: in vitro ADME.
The nature of series [9]: Metabolic stability in mouse liver microsomes. It is filed as in vitro ADME. In short, it runs like this:
as §1

The nature of series [10]: Plasma protein binding (PPB), dog. It is filed as in vitro ADME. Particulars: read-out: PPB (D) (converted).
A short description of series [11]: Animal PK study in mouse via i.v., p.o. and s.c. administration. Format: in vivo. The settings on record: for PK CLiv / PK Vdiv / PK t1/2iv: i.v.; for PK CLpo / PK Vdpo / PK t1/2po: p.o. In short, it runs like this:
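Plasma drug levels were measured by LC-MS/MS after acetonitrile precipitation, with blood drawn up to 24 h post-dose (from 0.083 h i.v./s.c., 0.25 h oral) in mice or rats. Animals received one dose by gavage in DMSO/methylcellulose, or by tail-vein or subcutaneous injection in DMSO/HP-β-cyclodextrin.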

Another series relates to male C57BL/6J mice. In words: Food intake test in mouse (GHSR1a inverse agonists), cumulative food intake at 1, 2, 4, 8 and 24 hrs. Format: in vivo. How it is done: Evaluation of Inverse Agonist on Food Intake Test in Mouse:
Male C57BL/6J mice, 18-22 g body weight, were fasted overnight (16 h before compound administration) and placed in a regular light dark cycle (6:00-18:00 light/18:00-6:00 dark). After 1 wk acclimation, animals were sorted into two groups (n=6 each, 2 per cage) based on body weight. Animals in group one were be treated with vehicle and animals in group 2 were treated with the test agent (n=6 for each group). The cumulative food intake was evaluated at 1, 2, 4, 8 and 24 hrs after drug or vehicle treatment. Food intake was measured by subtracting uneaten food from the initial premeasured food.
Food Intake Study—Evaluation of GHSR1a inverse agonists on Food Intake Test in Mouse:
Twelve male C57BL/6J mice, weighing 18-22 g each, were fasted overnight (16 h before compound administration) and placed in a regular light dark cycle (6:00-18:00 light/18:00-6:00 dark). After 1 week acclimation, animals were sorted into two groups (n=6 each, 2 per cage) based on body weight. Animals in group one were treated with carrier minus the test compound. (control group) and animals in group 2 were treated with carrier with the test compound (experimental group). The cumulative food intake was evaluated at 1, 2, 4, 8 and 24 hrs after experimental or control treatment. Food intake was measured by subtracting uneaten food from the initial premeasured food.

For a further series, the target named is hERG (Homo sapiens, UniProt Q12809). In words: hERG inhibition.
Chain of hERG (Q12809 whole entry): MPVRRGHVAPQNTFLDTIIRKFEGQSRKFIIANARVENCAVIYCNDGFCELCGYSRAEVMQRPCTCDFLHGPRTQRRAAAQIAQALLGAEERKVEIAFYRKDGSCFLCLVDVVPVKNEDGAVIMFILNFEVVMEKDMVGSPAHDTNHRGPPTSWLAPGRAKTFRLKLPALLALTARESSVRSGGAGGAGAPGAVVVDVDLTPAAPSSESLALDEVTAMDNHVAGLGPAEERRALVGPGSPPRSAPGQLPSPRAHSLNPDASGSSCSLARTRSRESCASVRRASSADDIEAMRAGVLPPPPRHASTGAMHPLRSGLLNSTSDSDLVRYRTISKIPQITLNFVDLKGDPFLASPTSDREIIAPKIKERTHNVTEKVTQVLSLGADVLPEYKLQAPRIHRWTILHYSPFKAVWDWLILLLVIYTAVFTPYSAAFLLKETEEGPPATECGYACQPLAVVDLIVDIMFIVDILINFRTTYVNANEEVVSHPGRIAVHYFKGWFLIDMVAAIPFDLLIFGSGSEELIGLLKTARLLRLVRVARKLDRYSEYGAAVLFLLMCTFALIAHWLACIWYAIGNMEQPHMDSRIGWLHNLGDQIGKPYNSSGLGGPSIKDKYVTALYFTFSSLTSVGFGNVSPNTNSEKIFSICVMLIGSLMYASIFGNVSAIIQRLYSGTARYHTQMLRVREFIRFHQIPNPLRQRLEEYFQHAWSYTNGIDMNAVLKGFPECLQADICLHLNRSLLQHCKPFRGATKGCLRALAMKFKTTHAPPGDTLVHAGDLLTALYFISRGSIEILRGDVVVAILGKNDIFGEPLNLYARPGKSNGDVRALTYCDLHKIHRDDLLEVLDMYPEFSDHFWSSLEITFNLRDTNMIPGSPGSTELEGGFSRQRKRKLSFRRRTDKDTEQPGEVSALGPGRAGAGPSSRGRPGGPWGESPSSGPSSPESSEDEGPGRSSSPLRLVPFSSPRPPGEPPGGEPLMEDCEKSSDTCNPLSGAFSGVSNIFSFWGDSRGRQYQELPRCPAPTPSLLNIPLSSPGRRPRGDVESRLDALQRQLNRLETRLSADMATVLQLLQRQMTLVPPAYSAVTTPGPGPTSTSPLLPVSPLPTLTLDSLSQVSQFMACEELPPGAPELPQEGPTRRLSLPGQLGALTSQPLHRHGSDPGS

T1 sequence (Q92847 whole entry): as the sequence (Q92847 whole entry) above

With `C[C@H](NC(=O)Nc1ccc(S(=O)(=O)Cc2ccc3c(c2)CNC3)cc1)c1ccccc1` [H1215, (S)-1-(4-((isoindolin-5-ylmethyl)sulfonyl)phenyl)-3-(1-phenylethyl)urea], the “Metabolic Stability Study R = rat” value in series [1] was 18.5 µL/min/mg. Further, in series [2], the EC50 amounted to 4.6 nM. In addition, the “Metabolic Stability Study H = human” value in series [3] amounted to 21 µL/min/mg. The IC50 in [4] is 12.4 nM. Further, the fraction unbound in [5] is 0.097; in [7], 0.093; in series [8], 0.065. For the same compound, the “Metabolic Stability Study D = dog” value in series [6] came to 16.6 µL/min/mg. Besides, the “Metabolic Stability Study M = mouse” value in series [9] was found to be 13.7 µL/min/mg.

Regarding `C[C@H](NC(=O)Nc1ccc(S(=O)(=O)Cc2ccc(CO)cc2)cc1)c1cccc(Cl)c1Cl` [H1060, (S)-1-(1-(2,3-dichlorophenyl)ethyl)-3-(4-((4-(hydroxymethyl)benzyl)sulfonyl)phenyl)urea], the fraction unbound in series [10] was 0.0012. For the same compound, in series [2], the concentration giving a half-maximal response (EC50) is 40.8 nM. Also, the “Metabolic Stability Study H = human” value in series [3] was 40 µL/min/mg. In series [11], the “PK F” value came out at 18.8%, the “PK CLiv” value came to 68.8 mL/min/kg, the “PK Vdiv” value turned out to be 8.25 L/kg and the “PK t1/2iv” value is 1.37 h. For the same compound, in series [11], the “PK CLpo” value was 368 mL/min/kg, the “PK Vdpo” value was 22.4 L/kg and the “PK t1/2po” value came to 0.7 h. The half-maximal inhibitory concentration (IC50) in series [4] was 280 nM. Besides, the fraction unbound in series [5] turned out to be 0.0013. The fraction unbound in series [7] came out at 0.0019. Besides, the fraction unbound in series [8] was 0.0018. In addition, the “Metabolic Stability Study M = mouse” value in series [9] came out at 108.7 µL/min/mg.

Regarding `C[C@H](NC(=O)Nc1ccc(S(=O)(=O)Nc2ccc(CC(C)(C)N(C)C)cc2)cc1)c1cccc(Cl)c1Cl` [H0967, (S)-4-(3-(1-(2,3-dichlorophenyl)ethyl)ureido)-N-(4-(2-(dimethylamino)-2-methylpropyl)phenyl) benzenesulfonamide], in series [2], the 50% effective concentration (EC50) amounted to 4.7 nM. Besides, the “Metabolic Stability Study H = human” value in series [3] turned out to be 38.2 µL/min/mg. In addition, in series [11], the “PK F” value is given as 0.2%, the “PK CLiv” value turned out to be 39 mL/min/kg, the “PK Vdiv” value amounted to 8.62 L/kg and the “PK t1/2iv” value is on record as 2.56 h. Moreover, in series [11], the “PK CLpo” value turned out to be 11620 mL/min/kg, the “PK Vdpo” value came to 2326.2 L/kg and the “PK t1/2po” value is given as 2.31 h. The IC50 in series [4] came out at 16 nM. Moreover, the “Food Intake Study” value in the series with male C57BL/6J mice (5 mg/kg sc fasted mice) is recorded as 30 mg/kg po fasted - inh 5 mg/kg sc fasted - inh. The “Food Intake Study” value with male C57BL/6J mice (30 mg/kg po fasted mice) is given as 30 mg/kg po fasted - inh 5 mg/kg sc fasted - inh. Also, the “Metabolic Stability Study M = mouse” value in [9] was 58 µL/min/mg.

For `CC(c1ccc2c(c1)CCNC2)S(=O)(=O)c1ccc(NC(=O)N[C@@H](C)c2cccc(Cl)c2Cl)cc1.Cl` (stereo partly drawn) [H1080, 1-((S)-1-(2,3-dichlorophenyl)ethyl)-3-(4-((1-(1,2,3,4-tetrahydroisoquinolin-6-yl)ethyl)sulfonyl)phenyl)urea], the EC50 in series [2] turned out to be 11.1 nM. Further, in series [3], the “Metabolic Stability Study H = human” value is recorded as “H < 10 M < 10 R = not reported D = not reported μL/min/mg”. The half-maximal inhibitory concentration (IC50) in series [4] was 22.6 nM. On hERG, this compound yielded a hERG inh of 3.57 µM. Besides, in series [9], the “Metabolic Stability Study M = mouse” value is listed as “H < 10 M < 10 R = not reported D = not reported μL/min/mg”.

On to `C[C@H](NC(=O)Nc1ccc(S(=O)(=O)Cc2ccc(CC(C)(C)N)cc2)cc1)c1cccc(Cl)c1Cl` [H0969, (S)-1-(4-((4-(2-amino-2-methylpropyl)benzyl)sulfonyl)phenyl)-3-(1-(2,3-dichlorophenyl)ethyl)urea], for which the 50% effective concentration (EC50) in series [2] stood at 18.9 nM. For the same compound, the “Metabolic Stability Study H = human” value in [3] was 19.5 µL/min/mg. In series [11], the “PK F” value was found to be 1.3%, the “PK CLiv” value was 7.67 mL/min/kg, the “PK Vdiv” value was found to be 1.97 L/kg and the “PK t1/2iv” value worked out at 2.96 h. Moreover, in [11], the “PK CLpo” value came to 450.2 mL/min/kg, the “PK Vdpo” value amounted to 168.2 L/kg and the “PK t1/2po” value stood at 4.32 h. Besides, the half-inhibitory concentration (IC50) in series [4] is 53 nM. For the same compound, in the series on male C57BL/6J mice (30 mg/kg po fasted mice), the “Food Intake Study” value is on record as 30 mg/kg po fasted - inh. In addition, in series [9], the “Metabolic Stability Study M = mouse” value stood at 74.4 µL/min/mg.

Regarding `C[C@H](NC(=O)Nc1ccc(S(=O)(=O)Cc2ccc3c(c2)CCN(C)C3)cc1)c1cccc(Cl)c1Cl` [H1071, (S)-1-(1-(2,3-dichlorophenyl)ethyl)-3-(4-(((2-methyl-1,2,3,4-tetrahydroisoquinolin-6-yl)methyl)sulfonyl)phenyl)urea], the “Metabolic Stability Study R = rat” value in series [1] was 274 µL/min/mg and 188 µL/min/mg. In [10], the fraction unbound is 0.0082. Further, the concentration for a half-maximal effect (EC50) in [2] is 1.7 nM. Besides, in [11], the “PK F” value is given as 19.9%, the “PK CLiv” value turned out to be 28.5 mL/min/kg, the “PK Vdiv” value was 2.83 L/kg and the “PK t1/2iv” value is 1.15 h. In series [11], the “PK CLpo” value turned out to be 138 mL/min/kg, the “PK Vdpo” value is 21.1 L/kg and the “PK t1/2po” value was determined as 1.77 h. The half-maximal inhibitory concentration (IC50) in series [4] stood at 5 nM. For the same compound, in [5], the fraction unbound worked out at 0.0089. Moreover, the “Metabolic Stability Study D = dog” value in [6] is 172.6 µL/min/mg and 160.7 µL/min/mg. Also, the fraction unbound in series [7] came to 0.0098. In addition, in [8], the fraction unbound is 0.0087. Moreover, in series [9], the “Metabolic Stability Study M = mouse” value is 80.7 µL/min/mg and 152.5 µL/min/mg.

On to `CC(C)(N)Cc1ccc(NS(=O)(=O)c2ccc(NC(=O)NCc3cccc(Cl)c3Cl)cc2)cc1` [H0968, N-(4-(2-amino-2-methylpropyl)phenyl)-4-(3-(2,3-dichlorobenzyl)ureido) benzenesulfonamide], for which, in series [2], the EC50 was 5.7 nM. For the same compound, the “Metabolic Stability Study H = human” value in series [3] was 32.5 µL/min/mg. The IC50 in series [4] worked out at 44 nM. The “Food Intake Study” value in the series with male C57BL/6J mice (30 mg/kg po fasted mice) is on record as 30 mg/kg po fasted - inh. Also, the “Metabolic Stability Study M = mouse” value in series [9] was determined as 27.4 µL/min/mg.

As for `C[C@H](NC(=O)Nc1ccc(S(=O)(=O)Nc2ccc(CO)cc2)cc1)c1cccc(Cl)c1Cl` [H1062, (S)-4-(3-(1-(2,3-dichlorophenyl)ethyl)ureido)-N-(4-(hydroxymethyl)phenyl) benzenesulfonamide], the fraction unbound in series [10] is 0.0017; in series [5], 0.0012; in series [7], 0.0019; in [8] it was 0.0012. In addition, the EC50 in [2] amounted to 58 nM. In addition, the “Metabolic Stability Study H = human” value in series [3] stood at 32.4 µL/min/mg. Further, the IC50 in series [4] came out at 222 nM. The “Metabolic Stability Study M = mouse” value in [9] is 67.2 µL/min/mg.

For orientation: EC50 means the midpoint of the concentration-response curve. The term IC50 denotes the midpoint of a concentration-inhibition curve.
